Test results from PMC11057141, “Untangling the mess of CGRP levels as a migraine biomarker: an in-depth literature review and analysis of our experimental experience” (The Journal of Headache and Pain, 2024).
No end group written: not given here.

How the values were obtained:
CGRP [1] = conditions: mean ± SEM, cited from earlier work
CGRP [2] = tested on: CGRP; design: method as in PMID 16472331; conditions: MWA, mean ± SEM, cited from earlier work
CGRP [3] = tested on: CGRP; design: method as in PMID 15689192; conditions: MWA, ictal, cited from earlier work
CGRP [4] = tested on: CGRP; design: method as in PMID 8388188; conditions: 8 migraineurs, ictal, subcutaneous sumatriptan, mean ± SE; pre-treatment 60 ± 8; cited from earlier work
[5] = Long-term storage of serum at -80°C, sandwich ELISA; type: in vitro ADME; conditions: human serum
Procedure: (§1) We tested 4 different ELISA kit references with serum samples, 2 based on competitive ELISA (Biorbyt, UK, ref: orb438605; BMA Biomedicals, Switzerland, ref: S-1198), specifically designed for the detection of total-CGRP, and 2 based on ELISA sandwich (Abbexa, UK, ref: abx257902; CUSABIO, China, ref: CSB-E08210h), designed for the detection of alpha and beta-CGRP, respectively. All 4 of these products were assayed multiple times (at least 4 for each kit reference) to analyse the optimal dilutions of the samples, their reproducibility and their reported concentrations. All the procedures were carried out strictly following the manufacturer’s instructions of use of their products, they were performed by the same researcher, using the same equipment, and in the same facilities. […] All the samples were measured in duplicate, obtained from morning blood extractions, 9–12 am, from patients in a fast of at least 12h. These samples were let to clot for 10–15 min, centrifuged at 3500 rpm for 10 min and then immediately stored at -80°C until assayed. A standard curve was generated for every single batch, and they were calculated using a 4-parameter logistic (4-PL) regression with r^2 > 0.999.
We assayed 11 consecutive samples from previous works (36.4% male; age range: 26–65) that had been stored at -80°C for more than 6 months and which had been assayed altogether before being stored for a month and before reaching this time point.

[6] = Influence of sample processing time: serum kept at 4°C before freezing at -80°C, sandwich ELISA; type: in vitro ADME, human
Procedure: as §1
We recruited 6 individuals without history of migraine and subjective absence of headache at the day of the sampling (50% male; age range: 24–65 years). […] The blood was then let to clot for 10 min at room temperature, then centrifuged at 3500 rpm for 10 min to obtain serum. Serum was divided into 4 tubes. First one was immediately stored at -80°C, the other three were kept in the refrigerator at 4°C for, 2, 4 and 24 h respectively before frozen. None of the samples were added peptidase inhibitor. These samples were measured by triplicate.

[7] = infused in humans; cited from earlier work
Text: The relevance of the peptide goes beyond its use as a therapeutical target, having been proposed as a biomarker in migraine.

[8] = frozen samples; cited from earlier work
Text: Another point recurrently mentioned in the literature is the long-term stability of the molecules when frozen. […] This opens up the question about whether c ...

CGRP [9] = conditions: 32 MWA; exact values not displayed; cited from earlier work
Text: Table 1 Charasteristics of the studies measuring CGRP in migraine patients | column: Main findings relate to CGRP

CGRP [10] = conditions: cited from earlier work; for plasma CGRP 4 months after treatment cessation (V2), median (IQR) / plasma CGRP at last injection (V1), median (IQR): EM and CM patients, controls 32.6(21.3–44.6)
Text: Table 1 Charasteristics of the studies measuring CGRP in migraine patients | column: Concentrations

[11] = EM without aura, mean ± SD, T0 86.9 ± 24.1
[12] = healthy controls, mean ± SD, T0 87.9 ± 21.3

Q: With `O=[N+]([O-])OCC(CO[N+](=O)[O-])O[N+](=O)[O-]` [nitroglyceri, nitroglycerin] as the molecule, how does the “plasma CGRP, controls T1” value (CGRP [1]; basal 15.1 ± 2.0) read?
A: The value was 17.5 pmol/L.

Q: What about the “plasma CGRP, controls T2” value (CGRP [1]; basal 15.1 ± 2.0) of the same molecule?
A: Its value is 16.5 pmol/L.

Q: And the “plasma CGRP, controls T3” value (CGRP [1]; basal 15.1 ± 2.0)?
A: Its value is 15.3 pmol/L.

Q: And the “plasma CGRP, migraineurs T1” value (CGRP [1]; basal 18.4 ± 1.7)?
A: The value was 19.7 pmol/L.

Q: And the “plasma CGRP, migraineurs T2” value (CGRP [1]; basal 18.4 ± 1.7)?
A: Its value is 22.2 pmol/L.

Q: What about the “plasma CGRP, migraineurs T3” value (CGRP [1]; basal 18.4 ± 1.7) of the same molecule?
A: Its value is 21.0 pmol/L.

Q: Which results are given for `CN(C)CCc1c[nH]c2ccc(Cn3cncn3)cc12` [rizatriptan]?
A: plasma (JV) CGRP, non-responders 1 h (CGRP [2]; before rizatriptan 7.4 ± 2.4): 7.6 pmol/L; plasma (JV) CGRP, non-responders 2 h (CGRP [2]; before rizatriptan 7.4 ± 2.4): 7.9 pmol/L; plasma (JV) CGRP, non-responders 4 h (CGRP [2]; before rizatriptan 7.4 ± 2.4): 7.7 pmol/L; plasma (JV) CGRP, non-responders 6 h (CGRP [2]; before rizatriptan 7.4 ± 2.4): 7.3 pmol/L; plasma (JV) CGRP, non-responders 12 h (CGRP [2]; before rizatriptan 7.4 ± 2.4): 7.2 pmol/L; plasma (JV) CGRP, responders 1 h (CGRP [2]; before rizatriptan 12.2 ± 3.2): 7.6 pmol/L; plasma (JV) CGRP, responders 2 h (CGRP [2]; before rizatriptan 12.2 ± 3.2): 3.4 pmol/L; plasma (JV) CGRP, responders 4 h (CGRP [2]; before rizatriptan 12.2 ± 3.2): 2.6 pmol/L; plasma (JV) CGRP, responders 6 h (CGRP [2]; before rizatriptan 12.2 ± 3.2): 2.3 pmol/L; plasma (JV) CGRP, responders 12 h (CGRP [2]; before rizatriptan 12.2 ± 3.2): 2.1 pmol/L

Q: Which results are given for `CNS(=O)(=O)Cc1ccc2[nH]cc(CCN(C)C)c2c1` [sumatriptan]?
A: plasma CGRP 1 h after sumatriptan, responders (CGRP [3]; n = 6, mean ± SEM, before 16.9 ± 2.8): 14.7 pmol/L; plasma CGRP 1 h after sumatriptan, non-responders (CGRP [3]; n = 13, mean ± SEM, before 24.3 ± 2.5): 23.8 pmol/L; plasma (JV) CGRP post-treatment (CGRP [4]): 40 pmol/L

Q: With Calcitonin gene-related peptide [CGRP] as the molecule, how does the “effect of storage at -80°C of more than 6 months on CGRP levels” value [5] read?
A: Its value is “decrease”.

Q: What about the “CGRP content in serum stored at 4°C” value ([6]; first 24 h at 4°C after clotting and immediate centrifugation) of the same molecule?
A: The value was “preserved”.

Q: And the “effect of infusion in humans” value [7]?
A: Its value is “induction of migraine-like headaches”.

Q: And the “effect of frozen storage of 8 months on CGRP concentration” value [8]?
A: Its value is “significantly decrease”.

Q: With “Pituitary adenylate cyclase activating peptide-38 (HSDGIFTDSYSRYRKQMAVKKYLAAVLGKRYKQRVKNK; ends and bridges not checked; UniProt P18509 132-169, looked up) [PACAP38]” as the molecule, how does the “effect of PACAP38 infusion on CGRP concentrations” value (CGRP [9]) read?
A: The value was “PACAP38 infusion do not causes changes in CGRP concentrations”.

Q: For “Vasoactive intestinal peptide (HSDAVFTDNYTRLRKQMAVKKYLNSILN; ends and bridges not checked; UniProt P01282 125-152, looked up) [VIP]”, which “plasma CGRP, VIP infusion Migraine T30” value (CGRP [10]; [11]) is on record?
A: Its value is 94.2 pg/mL.

Q: And the “plasma CGRP, VIP infusion Migraine T60” value (CGRP [10]; [11])?
A: The value was 95.1 pg/mL.

Q: And the “plasma CGRP, VIP infusion Migraine T90” value (CGRP [10]; [11])?
A: The value was 87.5 pg/mL.

Q: And the “plasma CGRP, VIP infusion Migraine T120” value (CGRP [10]; [11])?
A: The value was 88.7 pg/mL.

Q: And the “plasma CGRP, VIP infusion Migraine T150” value (CGRP [10]; [11])?
A: The value was 85.1 pg/mL.

Q: What about the “plasma CGRP, VIP infusion Migraine T180” value (CGRP [10]; [11]) of the same molecule?
A: Its value is 83.3 pg/mL.

Q: What about the “plasma CGRP, VIP infusion HC T30” value (CGRP [10]; [12]) of the same molecule?
A: The value was 102.1 pg/mL.

Q: And the “plasma CGRP, VIP infusion HC T60” value (CGRP [10]; [12])?
A: Its value is 109.3 pg/mL.

Q: What about the “plasma CGRP, VIP infusion HC T90” value (CGRP [10]; [12]) of the same molecule?
A: Its value is 104.1 pg/mL.

Q: What about the “plasma CGRP, VIP infusion HC T120” value (CGRP [10]; [12]) of the same molecule?
A: Its value is 110.1 pg/mL.

Q: And the “plasma CGRP, VIP infusion HC T150” value (CGRP [10]; [12])?
A: The value was 97.8 pg/mL.

Q: What about the “plasma CGRP, VIP infusion HC T180” value (CGRP [10]; [12]) of the same molecule?
A: The value was 98.2 pg/mL.

Q: What does the source list for “beta-CGRP: endogenous neuropeptide encoded in CALCB, differs from alpha-CGRP in 3 of 37 amino acids”?
A: serum concentration, measured before one month of storage at -80°C ([5]; 11 samples, ELISA Abbexa (alpha) / CUSABIO (beta), mean ± SD): 4.9 ± 2.0 pg/mL; serum concentration after more than 6 months of storage at -80°C ([5]; same 11 samples, ELISA Abbexa (alpha) / CUSABIO (beta), mean ± SD, p < 0.01 vs first measurement): 3.0 ± 1.3 pg/mL; serum concentration after 2 h at 4°C ([6]; human serum, no peptidase inhibitor, 2 h at 4°C before -80°C, ELISA Abbexa (alpha) / CUSABIO (beta), mean ± SD, 6 subjects, triplicate): 4.9 ± 1.7 pg/mL; serum concentration after 4 h at 4°C ([6]; human serum, no peptidase inhibitor, 4 h at 4°C before -80°C, ELISA Abbexa (alpha) / CUSABIO (beta), mean ± SD, 6 subjects, triplicate): 4.7 ± 1.5 pg/mL; serum concentration after 24 h at 4°C ([6]; human serum, no peptidase inhibitor, 24 h at 4°C before -80°C, ELISA Abbexa (alpha) / CUSABIO (beta), mean ± SD, 6 subjects, triplicate): 4.4 ± 1.8 pg/mL; serum concentration, deep frozen right away ([6]; human serum, no peptidase inhibitor, clot 10 min RT, 3500 rpm 10 min, immediately -80°C, ELISA Abbexa (alpha) / CUSABIO (beta), mean ± SD, 6 subjects, triplicate): 4.6 ± 1.6 pg/mL

B1: Erenumab: anti-CGRP(-receptor) monoclonal antibody (antibody, chains of the INN, looked up, V domains shown)
VH: QVQLVESGGGVVQPGRSLRLSCAASGFTFSSFGMHWVRQAPGKGLEWVAVISFDGSIKYSVDSVKGRFTISRDNSKNTLFLQMNSLRAEDTAVYYCARDRLNYYDSSGYYHYKYYGMAVWGQGTTVTVSS
VL: QSVLTQPPSVSAAPGQKVTISCSGSSSNIGNNYVSWYQQLPGTAPKLLIYDNNKRPSGIPDRFSGSKSGTSTTLGITGLQTGDEADYYCGTWDSRLSAVVFGGGTKLTVL
Q: With B1 as the molecule, how does the “serum CGRP at T1, median (IQR)” value (CGRP [10]; 94 erenumab treated EM and CM, basal 14.1 (8.2–33.9)) read?
A: The value was 13.8 pg/mL.

Q: What about the “plasma CGRP 4 months after treatment cessation (V2), median (IQR)” value (CGRP [10]) of the same molecule?
A: The value was 30.3 pg/mL.

Q: What about the “plasma CGRP at last injection (V1), median (IQR)” value (CGRP [10]) of the same molecule?
A: The value was 31.2 pg/mL.

Q: And the “salivary CGRP at M3, EM without depression” value (CGRP [10]; mean ± SD, basal 198.90 ± 27.89)?
A: Its value is 235.05 pg/mL.

Q: And the “salivary CGRP at M3, CM with depression” value (CGRP [10]; n = 6, mean ± SD, basal 460.69 ± 57.24)?
A: The value was 446.99 pg/mL.

Q: And the “salivary CGRP at M3, CM without depression” value (CGRP [10]; n = 10, mean ± SD, basal 194.34 ± 43.75)?
A: Its value is 256.34 pg/mL.

B2: Fremanezumab: anti-CGRP monoclonal antibody (antibody, chains of the INN, looked up, V domains shown)
VH: EVQLVESGGGLVQPGGSLRLSCAASGFTFSNYWISWVRQAPGKGLEWVAEIRSESDASATHYAEAVKGRFTISRDNAKNSLYLQMNSLRAEDTAVYYCLAYFDYGLAIQNYWGQGTLVTVSS
VL: EIVLTQSPATLSLSPGERATLSCKASKRVTTYVSWYQQKPGQAPRLLIYGASNRYLGIPARFSGSGSGTDFTLTISSLEPEDFAVYYCSQSYNYPYTFGQGTKLEIK
Q: With B2 as the molecule, how does the “plasma CGRP 4 months after treatment cessation (V2), median (IQR)” value (CGRP [10]) read?
A: The value was 34.3 pg/mL.

Q: What about the “plasma CGRP at last injection (V1), median (IQR)” value (CGRP [10]) of the same molecule?
A: The value was 29.4 pg/mL.

B3: Galcanezumab: anti-CGRP monoclonal antibody (antibody, chains of the INN, looked up, V domains shown)
VH: QVQLVQSGAEVKKPGSSVKVSCKASGYTFGNYWMQWVRQAPGQGLEWMGAIYEGTGKTVYIQKFADRVTITADKSTSTAYMELSSLRSEDTAVYYCARLSDYVSGFGYWGQGTTVTVSS
VL: DIQMTQSPSSLSASVGDRVTITCRASKDISKYLNWYQQKPGKAPKLLIYYTSGYHSGVPSRFSGSGSGTDFTLTISSLQPEDFATYYCQQGDALPPTFGGGTKVEIK
Q: What does the source list for B3?
A: plasma CGRP 4 months after treatment cessation (V2), median (IQR) (CGRP [10]): 1853.2 pg/mL; plasma CGRP at last injection (V1), median (IQR) (CGRP [10]): 5439.3 pg/mL
